Key:
[1] = molecular target: T1, N-formyl peptide receptor 2 (Homo sapiens, UniProt P25090)
T1 sequence (P25090 whole entry): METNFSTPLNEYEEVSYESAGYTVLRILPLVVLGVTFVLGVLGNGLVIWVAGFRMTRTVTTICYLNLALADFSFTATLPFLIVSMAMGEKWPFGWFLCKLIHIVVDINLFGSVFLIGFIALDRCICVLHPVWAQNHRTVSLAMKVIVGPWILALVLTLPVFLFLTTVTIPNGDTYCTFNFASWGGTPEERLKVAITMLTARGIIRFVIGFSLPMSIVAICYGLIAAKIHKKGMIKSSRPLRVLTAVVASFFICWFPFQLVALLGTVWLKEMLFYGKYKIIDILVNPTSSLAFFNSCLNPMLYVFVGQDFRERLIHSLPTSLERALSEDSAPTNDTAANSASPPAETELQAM

fMet-Leu-Phe receptor = molecular target: T2, fMet-Leu-Phe receptor (Homo sapiens, UniProt P21462)
T2 sequence (P21462 whole entry): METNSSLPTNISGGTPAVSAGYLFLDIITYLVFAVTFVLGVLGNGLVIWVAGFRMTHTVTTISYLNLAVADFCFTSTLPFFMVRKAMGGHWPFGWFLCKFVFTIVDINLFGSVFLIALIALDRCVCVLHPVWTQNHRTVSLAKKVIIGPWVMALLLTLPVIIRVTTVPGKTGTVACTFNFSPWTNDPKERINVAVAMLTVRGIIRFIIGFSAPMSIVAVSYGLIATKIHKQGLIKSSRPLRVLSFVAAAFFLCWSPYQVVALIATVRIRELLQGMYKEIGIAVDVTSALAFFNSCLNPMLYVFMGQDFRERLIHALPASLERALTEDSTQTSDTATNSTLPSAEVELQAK

Structure (SMILES) | EC50 [1] | EC50 (fMet-Leu-Phe receptor)
COc1cc(F)c(-n2cc(Cc3nnc(C)o3)nc2NC(=O)c2ccc(OC(F)F)cc2)c(F)c1 [WO2022076764, Example 73] | 300 nM | 23 nM
COc1cc(F)c(-n2cc(C3CCC(O)CC3)nc2NC(=O)c2ccc(OC(F)F)cc2)c(F)c1 (centres undefined) [WO2022076764, Example 76] | 240 nM | 10 nM
COc1cc(F)c(-n2cc(Cc3ccccn3)nc2NC(=O)c2ccc(OC(F)F)cc2)c(F)c1 [WO2022076764, Example 78] | 870 nM | 56 nM

The remaining lines, values ahead:

EC50 [1] | EC50 (fMet-Leu-Phe receptor) | Structure (SMILES)
4200 nM | 81 nM | COc1cc(F)c(-n2cc(C3CNC3)nc2NC(=O)c2ccc(OC(F)F)cc2)c(F)c1 [WO2022076764, Example 79]
500 nM | 59 nM | COc1cc(F)c(-n2cc(-c3ccn[nH]3)nc2NC(=O)c2ccc(OC(F)F)cc2)c(F)c1 [WO2022076764, Example 80]
5400 nM | 4 nM | COc1cc(F)c(-n2cc(C3CC(N)C3)nc2NC(=O)c2ccc(OC(F)F)cc2)c(F)c1 (centres undefined) [WO2022076764, Example 81]
400 nM | 5 nM | COc1cc(F)c(-n2cc(C3CC(NS(C)(=O)=O)C3)nc2NC(=O)c2ccc(OC(F)F)cc2)c(F)c1 (centres undefined) [WO2022076764, Example 83]

From BindingDB's records for patent WO2022076764 (BRISTOL-MYERS SQUIBB COMPANY, 2022)
